Data published in patent US20260355191A1, “PAN-RAS INHIBITOR COMPOUND” (ADLAI NORTYE BIOPHARMA CO., LTD., priority 2024, published 2026).

Experiments:
AsPC-1 = assay: In vitro cell proliferation inhibition assay (CellTiter-Glo), AsPC-1; format: cell-based; details: AsPC-1, KRAS (p.G12D), 72 h; read-out: IC50, antiproliferative activity
Protocol: (§1) Due to the diversity of RAS mutations, and in order to evaluate the activity of the compounds in different RAS mutant cell lines, we selected cell lines with KRAS^G12D, KRAS^G12V, KRAS^G12c, NRAS^q61L, KRAS^G13D, KRAS^G12R, and KRAS^WT mutations (see the table below for in vitro activity evaluation and screening of the compounds.
(§2) According to the doubling time of different cell lines, different numbers of cells (1000-5000 cells/well) were seeded into 96-well plates containing 180 μL of the corresponding culture medium, and incubated overnight in a cell incubator at 37 °C with 5% C02. On the following day, the test compounds were pre-diluted in the culture medium in a 3-fold serial dilution series, with the highest concentration being […], resulting in 10 concentration gradients in total. Subsequently, 20 μL of culture medium containing the compounds at different concentrations was added to the cells in the 96-well plates, ensuring a final compound concentration of up to 10 μM, with 10 concentrations in 3-fold dilution. After co-incubation of the cells with the compounds for 72 h, the 96-well plates were removed from the incubator and equilibrated at room temperature for 30 min. Then, 25 μL of CellTiter-Glo® Reagent was added to each well and mixed thoroughly, followed by incubation at room temperature for 10 min. Subsequently, 100 μL of the samples was transferred to white 96-well plates (OptiPlate™-96, PerkinElmer), and […] signal values were read using a multifunctional microplate reader (SpectraMax i3x, Molecular Devices). The signal values were then normalized, and curve fitting was performed using a four-parameter logistic regression equation to calculate the half maximal inhibitory concentration (IC50) of the compounds against the cell lines.

SW480 = assay: In vitro cell proliferation inhibition assay (CellTiter-Glo), SW480; format: cell-based; details: SW480, KRAS (p.G12V), 72 h; read-out: IC50, antiproliferative activity
Protocol: as §1, §2

H358 = assay: In vitro cell proliferation inhibition assay (CellTiter-Glo), H358; format: cell-based; details: H358, KRAS (p.G12C), 72 h; read-out: IC50, antiproliferative activity
Protocol: as §1, §2

HepG2 = assay: In vitro cell proliferation inhibition assay (CellTiter-Glo), HepG2; format: cell-based; details: HepG2, NRAS (p.Q61L), 72 h; read-out: IC50, antiproliferative activity
Protocol: as §1, §2

HCT116 = assay: In vitro cell proliferation inhibition assay (CellTiter-Glo), HCT116; format: cell-based; details: HCT116, KRAS (p.G13D), 72 h; read-out: IC50, antiproliferative activity
Protocol: as §1, §2

PSN1 = assay: In vitro cell proliferation inhibition assay (CellTiter-Glo), PSN1; format: cell-based; details: PSN1, KRAS (p.G12R), 72 h; read-out: IC50, antiproliferative activity
Protocol: as §1, §2

MV411 = assay: In vitro cell proliferation inhibition assay (CellTiter-Glo), MV411; format: cell-based; details: MV411, KRAS wild type, 72 h; read-out: IC50, antiproliferative activity
Protocol: as §2

cyclophilin A (CypA) = target: T1, cyclophilin A (CypA) (Homo sapiens, UniProt P62937); assay: Binary complex binding assay (BLI); details: His-tagged CypA, pH 7.4, 1:1 binding model; for Kd: read-out: KD1 (binary complex equilibrium dissociation constant); for kon: read-out: ka (association rate constant); for koff: read-out: kdis (dissociation rate constant)
T1 construct: purchased R&D 3589-CAB
Protocol: To evaluate the binding ability of the test compounds to cyclophilin A (CypA), we employed a Bio-layer Interferometry (BLI) method (Octet R8) to monitor the binding kinetics between the compounds and CypA, and to calculate the affinity of the binary complex. His-tagged CypA protein (3589-CAB, R&D) was first immobilized on an NTA sensor, followed by baseline equilibration for 120 seconds in the assay buffer (20 mM HEPES, pH 7.4, 150 mM NaCl, 5 mM MgCl2, 1 mM TCEP, 0.01% Tween 20). The sensor was then exposed to buffer solutions containing different concentrations of the compounds to monitor the association process in real time. When the high-concentration compound binding reached a plateau, the sensor was transferred to compound-free buffer to measure the dissociation process. To ensure data accuracy, DMSO normalization was performed, non-specific binding was minimized by buffer optimization, and negative and positive controls were set to verify assay specificity. Data were processed using Octet Analysis Studio 13.0, analyzed using a 1:1 binding model, and the association rate constant (ka), dissociation rate constant (kdis), and equilibrium dissociation constant (KD1) were calculated.

[1] = target: ternary complex comprising RAS and CypA; KRAS^G12D (Homo sapiens, UniProt P01116+P62937, G12D); assay: Ternary complex binding assay (BLI), KRAS G12D; details: GMPPNP-loaded KRAS^G12D, fixed concentration of CypA, pH 7.4, read-out: KD2 (ternary complex equilibrium dissociation constant)
Protocol: (§3) To evaluate the ability of the test compounds to induce the formation of a ternary complex comprising RAS and CypA, we employed a Bio-layer Interferometry (BLI) method (Octet R8) to monitor the binding kinetics among the compounds, RAS, and CypA, and to calculate the affinity of the ternary complex. GMPPNP was first incubated with RAS protein to load GMPPNP onto RAS. His-tagged RAS proteins with different mutations were then immobilized on NTA sensors, followed by baseline equilibration for 120 seconds in the assay buffer (20 mM HEPES, pH 7.4, 150 mM NaCl, 5 mM MgCl2, 1 mM TCEP, 5 μM GMPPNP, 0.01% Tween 20). The sensors were subsequently exposed to buffer containing various concentrations of the compounds and a fixed concentration of CypA, and the association phase of ternary complex formation was monitored in real time. Once binding reached a plateau, the sensors were transferred to compound- and CypA-free buffer to measure the dissociation phase. To ensure accuracy, DMSO normalization was performed, buffer composition was optimized to reduce non-specific binding, and both negative and positive controls were employed to verify assay specificity. Data were processed using Octet Analysis Studio 13.0, analyzed using a 1:1 binding model, and the association rate constant (ka), dissociation rate constant (kdis), and equilibrium dissociation constant (KD2) were calculated.

[2] = target: ternary complex comprising RAS and CypA; KRAS^G12V (Homo sapiens, UniProt P01116+P62937, G12V); assay: Ternary complex binding assay (BLI), KRAS G12V; details: GMPPNP-loaded KRAS^G12V, fixed concentration of CypA, pH 7.4, read-out: KD2 (ternary complex equilibrium dissociation constant)
Protocol: as §3

[3] = target: ternary complex comprising RAS and CypA; KRAS^WT (Homo sapiens, UniProt P01116+P62937); assay: Ternary complex binding assay (BLI), KRAS WT; details: GMPPNP-loaded KRAS^WT, fixed concentration of CypA, pH 7.4, read-out: KD2 (ternary complex equilibrium dissociation constant)
Protocol: as §3

[4] = Pharmacokinetic study in mice; format: in vivo; details: mouse, male CD-1 mice; for bioavailability: blood; for bioavailability / AUC / Cmax: po; for Vd / clearance: iv; for Vd / clearance / AUC / Cmax: whole blood
Protocol: To evaluate the pharmacokinetic behavior of the compounds of the disclosure in male CD-1 mice, the test compounds were dissolved in a solvent (5% DMSO/10% solutol/85% water). Twelve male CD-1 mice were divided into two groups, with six animals in each group. Group 1 received a single intravenous bolus (i.v.) administration of the compound, and Group 2 received a single oral (p.o.) administration of the compound. Whole blood samples were collected at 0.083 h (intravenous group only), 0.25, 0.5, 1, 2, 4, 8, and 24 hours after dosing. The concentration of the test compound in whole blood samples was determined using the LC-MS/MS method.

T1 sequence (P62937 whole entry): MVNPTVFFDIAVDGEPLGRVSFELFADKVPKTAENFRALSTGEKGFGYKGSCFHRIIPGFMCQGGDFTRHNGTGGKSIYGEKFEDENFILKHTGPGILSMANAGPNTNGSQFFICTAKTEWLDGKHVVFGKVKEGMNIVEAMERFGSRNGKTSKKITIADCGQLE
ternary complex comprising RAS and CypA; KRAS^G12D, sequence (P01116 1-188 isoform P01116-2 G12D): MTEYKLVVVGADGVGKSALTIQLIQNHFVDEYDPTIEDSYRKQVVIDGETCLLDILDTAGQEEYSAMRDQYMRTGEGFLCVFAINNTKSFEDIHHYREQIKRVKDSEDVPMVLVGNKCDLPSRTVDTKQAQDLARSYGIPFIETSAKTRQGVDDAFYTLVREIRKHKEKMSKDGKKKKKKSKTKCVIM
ternary complex comprising RAS and CypA; KRAS^G12D, sequence (P62937 whole entry): as the sequence (P62937 whole entry) above
ternary complex comprising RAS and CypA; KRAS^G12V, sequence (P01116 1-188 isoform P01116-2 G12V): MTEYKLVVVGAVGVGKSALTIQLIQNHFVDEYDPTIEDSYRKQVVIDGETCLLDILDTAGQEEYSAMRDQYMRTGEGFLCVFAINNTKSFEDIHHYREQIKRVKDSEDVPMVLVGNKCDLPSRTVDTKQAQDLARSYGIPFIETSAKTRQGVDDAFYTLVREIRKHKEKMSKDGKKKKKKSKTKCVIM
ternary complex comprising RAS and CypA; KRAS^G12V, sequence (P62937 whole entry): as the sequence (P62937 whole entry) above
ternary complex comprising RAS and CypA; KRAS^WT, sequence (P01116 1-188 isoform P01116-2): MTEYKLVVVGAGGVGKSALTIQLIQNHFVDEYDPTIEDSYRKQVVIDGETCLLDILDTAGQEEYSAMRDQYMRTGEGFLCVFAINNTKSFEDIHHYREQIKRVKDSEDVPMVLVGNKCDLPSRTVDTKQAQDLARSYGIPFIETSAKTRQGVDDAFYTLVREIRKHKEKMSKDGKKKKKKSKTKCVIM
ternary complex comprising RAS and CypA; KRAS^WT, sequence (P62937 whole entry): as the sequence (P62937 whole entry) above

## CO[C@@H](C)c1ncc(-c2nnc(C3CCN(C4COC4)CC3)o2)cc1-c1c2c3cc(ccc3n1CC(F)(F)F)-c1csc(n1)C[C@H](NC(=O)C1[C@@H](C)[C@H]1C)C(=O)N1N[C@H](C(=O)OCC(C)(C)C2)C2CC1C2 (stereo partly drawn) [Compound 8]
AsPC-1
  IC50: 0.01 nM
SW480
  IC50: 0.01 nM
H358
  IC50: 0.01 nM
HepG2
  IC50: 0.02 nM
HCT116
  IC50: 0.03 nM
PSN1
  IC50: 0.01 nM
MV411
  IC50: 0.07 nM
Cyclophilin A (CypA)
  Kd: 2 nM
  kon: 330000 M⁻¹ s⁻¹
  koff: 0.00066 s⁻¹
[1]
  Kd: 8.8 nM
[2]
  Kd: 8.3 nM
[3]
  Kd: 10 nM
[4]; i.v. 0.25 mpk, p.o. 0.5 mpk
  bioavailability: 54.6%
[4]; i.v. 0.25 mpk
  Vd: 1.84 L/kg
  clearance: 1.8 mL/min/kg
[4]; 0.5 mg/kg, p.o. 0.5 mpk
  AUC: 2590 ng·h/mL
  Cmax: 96 ng/mL

## CO[C@@H](C)c1ncc(-c2nnc(C3CCN(C4COC4)CC3)o2)cc1-c1c2c3cc(ccc3n1CC(F)(F)F)-c1csc(n1)C[C@H](NC(=O)[C@H]1[C@H](C)[C@@H]1C)C(=O)N1CCC[C@H](N1)C(=O)OCC(C)(C)C2 (atropisomer, axis not shown) [Compound 6, (1r,2R,3S)—N-((6^3S,4S,Z)-1^2-(2-((S)-1-methoxyethyl)-5-(5-(1-(oxetan-3-yl)piperidin-4-yl)-1,3,4-oxadiazol-2-yl)pyridin-3-yl)-10,10-dimethyl-5,7-dioxo-1^1-(2,2,2-trifluoroethyl)-6^1,6^2,6^3,6^4,6^5,6^6-hexahydro-1^1H-8-oxa-2(4,2)-thiazola-1(5,3)-indola-6(1,3)-pyridazinacycloundecaphane-4-yl)-2,3-dimethylcyclopropane-1-carboxamide]
AsPC-1
  IC50: 0.02 nM
SW480
  IC50: 0.03 nM
H358
  IC50: 0.007 nM
HepG2
  IC50: 0.04 nM
HCT116
  IC50: 0.44 nM
PSN1
  IC50: 0.04 nM
MV411
  IC50: 0.12 nM
Cyclophilin A (CypA)
  Kd: 3 nM
  kon: 130000 M⁻¹ s⁻¹
  koff: 0.0004 s⁻¹
[1]
  Kd: 24 nM
[2]
  Kd: 26 nM
[3]
  Kd: 16 nM
[4]; i.v. 1 mpk, p.o. 2 mpk
  bioavailability: 43.1%
[4]; 1 mg/kg, i.v. 1 mpk
  Vd: 1.14 L/kg
  clearance: 2.6 mL/min/kg
[4]; 2 mg/kg, p.o. 2 mpk
  AUC: 5630 ng·h/mL
  Cmax: 439 ng/mL
